Experimental data published in patent US12668568B2, “Adamantanyl-substituted benzamide compounds and their use as P2X7 receptor antagonists” (The University of Sydney, priority 2018, dated 2026).

Key:
mP2X7R = biological target: T1, mP2X7R (Mus musculus, UniProt Q9Z1M0); assay: Calcium influx assay in HEK-mP2X7 cells; assay type: cell-based; settings: HEK cells expressing mP2X7R, BzATP 100 μM; mean ± standard deviation, n >3
T1 construct: expressed in transfected cells; host or cells: HEK293T, G418-selected; gift from Dr Leanne Stokes and Prof; Jim Wiley
T1 sequence (Q9Z1M0 1-595): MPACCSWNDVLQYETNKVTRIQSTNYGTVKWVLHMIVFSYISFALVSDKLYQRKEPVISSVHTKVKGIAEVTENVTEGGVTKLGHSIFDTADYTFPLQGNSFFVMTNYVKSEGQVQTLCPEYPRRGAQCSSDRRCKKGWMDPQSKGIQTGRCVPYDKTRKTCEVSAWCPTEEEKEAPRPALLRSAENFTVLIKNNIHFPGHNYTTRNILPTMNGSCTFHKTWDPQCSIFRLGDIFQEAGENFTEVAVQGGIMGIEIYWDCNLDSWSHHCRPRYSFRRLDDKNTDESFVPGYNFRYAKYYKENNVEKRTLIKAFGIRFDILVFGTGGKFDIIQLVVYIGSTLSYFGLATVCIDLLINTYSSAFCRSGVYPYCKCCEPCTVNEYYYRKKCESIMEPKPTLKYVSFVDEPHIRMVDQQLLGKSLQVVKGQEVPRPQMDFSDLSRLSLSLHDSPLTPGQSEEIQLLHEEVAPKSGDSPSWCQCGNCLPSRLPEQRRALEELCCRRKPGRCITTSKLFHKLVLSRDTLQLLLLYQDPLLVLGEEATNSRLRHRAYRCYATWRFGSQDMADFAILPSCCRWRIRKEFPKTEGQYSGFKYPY
Procedure: HEK293T cells transfected with cDNA for the human (HEK-hP2X7) or mouse P2X7 (HEK-mP2X7) receptor (a kind gift from Dr […] Stokes and Prof. Jim Wiley) were cultured in DMEM/F12 with 10% FBS and 500 μg/mL G418 (all from Invitrogen). […] HEK-hP2X7 or HEK-mP2X7 cells were harvested using trypsin (0.05%) with EDTA (0.03%). Cells were loaded with Fluo-4 AM (1 μM) in HBSS buffer at 37° C. for 30 min, inverting every 5 mins. […] Cells were resuspended a final time in assay buffer and seeded into black-walled 96 well clear-bottom plates at a density of 5×10^4 cells/well. […] Fluorescence was then monitored every 5 s for 5 min total monitoring. […] Data were normalized to the peak response seen with BzATP alone and the basal response seen due to injection of vehicle (see FIG. 3).

[1] = Liver microsome stability; assay type: in vitro ADME; settings: liver microsomes, rat liver microsome, 37° C., read-out: Liver microsome T1/2 (converted)
Text: Microsomes are vesicles of endoplasmic reticulum isolated from liver homogenate following differential centrifugation. They contain drug metabolising enzymes including the cytochromes P450 (CYP) responsible for a majority of drug metabolism. They also contain the phase II metabolising enzyme responsible for glucuronidation—uridine diphosphate glucuronyltransferase (UDPGT). As they contain many of the drug metabolizing enzymes found in the liver they are useful in vitro models of hepatic clearance. Assays are performed by incubating drugs of interest at a concentration of 1 μM with the microsomes at 37° C. The disappearance of the test compound is monitored at fixed points over a period of 60 minutes and samples analysed using LC-MSMS. The resulting data can be used to determine: • 1. Intrinsic clearance. These values can be used to categorise compounds into bands of high, medium or low clearance. Generally compounds with high clearances are considered to be less favourable as they are likely to be cleared more rapidly in vivo resulting in a short duration of action. • 2. Rank order compounds in order of microsomal stability by calculating half-life. Cytochrome Profiling […]

CYP1A2 = biological target: T2, CYP1A2 (Homo sapiens, UniProt P05177); assay: Cytochrome profiling CYP1A2 (baculosomes); assay type: in vitro ADME; settings: probe fluorogenic probe substrate (not named), 10 μM substrate
T2 construct: host or cells: insect cells infected with recombinant baculovirus (microsomes)
T2 sequence (P05177 1-516): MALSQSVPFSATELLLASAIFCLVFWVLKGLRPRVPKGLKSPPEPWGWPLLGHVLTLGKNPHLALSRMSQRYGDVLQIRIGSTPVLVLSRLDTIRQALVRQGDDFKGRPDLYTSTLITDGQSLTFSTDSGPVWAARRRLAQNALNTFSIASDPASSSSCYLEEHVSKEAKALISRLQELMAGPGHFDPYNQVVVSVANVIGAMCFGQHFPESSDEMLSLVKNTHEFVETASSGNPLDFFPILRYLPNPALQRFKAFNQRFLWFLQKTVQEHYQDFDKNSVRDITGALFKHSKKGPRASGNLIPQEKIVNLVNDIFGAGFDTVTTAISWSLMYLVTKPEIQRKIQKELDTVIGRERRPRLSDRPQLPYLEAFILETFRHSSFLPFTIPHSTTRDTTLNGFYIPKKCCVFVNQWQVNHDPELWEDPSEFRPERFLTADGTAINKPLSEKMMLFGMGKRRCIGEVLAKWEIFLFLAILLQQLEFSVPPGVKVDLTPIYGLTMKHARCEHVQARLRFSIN
Text: Cytochrome P450 (abbreviated CYP, P450 or CYP450) belong to very large and diverse superfamily of haemoproteins which accept both exogenous and endogenous compounds as substrates in enzymatic reactions and play a major role in drug metabolism. Although this class has more than 50 enzymes just 5 of them (CYP1A2, CYP2C9, CYP2C19, CYP2D6 and CYP3A4) are able to metabolise almost 90% of all drugs. Inhibition of these enzymes is one of the major reasons for drug-drug interactions. Consequently, detailed CYP inhibition profiles are a regulatory requirement for all new drugs. Inhibition potencies against the five most relevant CYP isoforms is performed using baculosomes; microsomes prepared from insect cells infected with recombinant baculovirus containing cDNA for a specific human P450 isozyme. The baculosomes are incubated with drug at a concentration of 1 μM in the presence of a probe substrate for 60 minutes at 37° C. The probe is normally metabolised by the baculosomes to produce a fluorescent metabolite. A substrate drug will compete for the isozyme and reduce the metabolism of the probe resulting in a decrease in the fluorescent signal. The percent inhibition due to the presence of the test compound is calculated using the following equation: [formula] • X=fluorescent intensity observed in the presence of test compound • A=fluorescent intensity observed in control • B=fluorescent intensity observed in the presence of the probe control

In the case of `COc1ccc(Cl)c(C(=O)NCC23CC4(F)CC(F)(CC(F)(C4)C2)C3)c1` [Compound 1, 2-Chloro-N-((3,5,7-trifluoroadamantan-1-yl)methyl)-5-methoxybenzamide], the IC50 (mP2X7R) is reported as 0.158 ± 0.044 µM, the half-life at 1 μM [1] is reported as 46.8 min and the inhibition at 60 min, 1 μM (CYP1A2) is reported as 5.48%.

In the case of `COc1ccc(Cl)c(C(=O)NCC23CC4CC(F)(CC(F)(C4)C2)C3)c1` [Compound 2, 2-Chloro-N-((3,5-difluoroadamantan-1-yl)methyl)-5-methoxybenzamide], the IC50 (mP2X7R) is reported as 0.575 ± 0.108 µM, the half-life at 1 μM [1] is reported as 18 min and the inhibition at 60 min, 1 μM (CYP1A2) is reported as 7.04%.

Compound `COc1ccc(Cl)c(C(=O)NCC23CC4CC(CC(F)(C4)C2)C3)c1` [Compound 3, 2-Chloro-N-((3-fluoroadamantan-1-yl)methyl)-5-methoxybenzamide] has an IC50 (mP2X7R) of 1.51 ± 0.339 µM, a half-life at 1 μM [1] of 4.8 min and an inhibition at 60 min, 1 μM (CYP1A2) of 7.86%.

`COc1ccc(Cl)c(C(=O)NCC23CC4CC(CC(C4)C2)C3)c1` [Compound 31, reference compound] gave an IC50 (mP2X7R) of 1.91 ± 0.905 µM, a half-life at 1 μM [1] of 7.8 min and an inhibition at 60 min, 1 μM (CYP1A2) of 25.7%.
